Where two headings read alike, the source gives them in different places.
Legend:
Assay in all cases: Glasshouse assay for herbicidal activity (pre- and post-emergence), percentage phytotoxicity
Type in all cases: in vivo
Lolium perenne (LOLPE) = details: Lolium perenne, 250 g/ha, visual assessment (100%=total damage, 0%=no damage)
Procedure, shortened: (§1)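 Pot-grown, standard soil. PRE: spray 1 d post-sowing; POST: ~12 d. Glasshouse 24/18 °C (warm spp.) / 20/16 °C (cool spp.), 16 h light, 65% RH, watered 2×/day. Visual % damage, 20 DAA PRE, 15 DAA POST.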

Avena fatua (AVEFA) = details: Avena fatua, 250 g/ha, visual assessment (100%=total damage, 0%=no damage)
Procedure, shortened: as §1

[1] = test system: Alopecurus myosuroides (ALOMY); details: Alopecurus myosuroides, 250 g/ha, visual assessment (100%=total damage, 0%=no damage)
Procedure, shortened: as §1

[2] = test system: Echinochloa crus-galli (ECHCG); details: Echinochloa crus-galli, 250 g/ha, visual assessment (100%=total damage, 0%=no damage)
Procedure, shortened: as §1

[3] = post-emergence, 360 h, post-emergence, 15 DAA, read-out: Post-emergence herbicidal activity (percentage phytotoxicity) LOLPE POST
[4] = pre-emergence, 480 h, pre-emergence, 20 DAA, read-out: Pre-emergence herbicidal activity (percentage phytotoxicity) LOLPE PRE
[5] = post-emergence, 360 h, post-emergence, 15 DAA, read-out: Post-emergence herbicidal activity (percentage phytotoxicity) AVEFA POST
[6] = pre-emergence, 480 h, pre-emergence, 20 DAA, read-out: Pre-emergence herbicidal activity (percentage phytotoxicity) AVEFA PRE
[7] = post-emergence, 360 h, post-emergence, 15 DAA, read-out: Post-emergence herbicidal activity (percentage phytotoxicity) ALOMY POST
[8] = pre-emergence, 480 h, pre-emergence, 20 DAA, read-out: Pre-emergence herbicidal activity (percentage phytotoxicity) ALOMY PRE
[9] = post-emergence, 360 h, post-emergence, 15 DAA, read-out: Post-emergence herbicidal activity (percentage phytotoxicity) ECHCG POST
[10] = pre-emergence, 480 h, pre-emergence, 20 DAA, read-out: Pre-emergence herbicidal activity (percentage phytotoxicity) ECHCG PRE

Compound	pest or weed control at 250 g/ha (Lolium perenne (LOLPE); [3])	pest or weed control at 250 g/ha (Lolium perenne (LOLPE); [4])	pest or weed control at 250 g/ha (Avena fatua (AVEFA); [5])	pest or weed control at 250 g/ha (Avena fatua (AVEFA); [6])	pest or weed control at 250 g/ha [1, 7]	pest or weed control at 250 g/ha [1, 8]	pest or weed control at 250 g/ha [2, 9]	pest or weed control at 250 g/ha [2, 10]
CC#CC(C)(C)NC(=O)CC1CC(=O)C(c2c(C)cc(C)cc2C)C1=O (stereo not shown) [Compound B35]	70%	80%	70%	0%	80%	90%	70%	80%
Cc1cc(C)c(C2C(=O)CC(CC(=O)NCC#CCCl)C2=O)c(C)c1 (stereo not shown) [Compound B36]	50%	80%	40%	0%	30%	50%	20%	0%
C#CCCNC(=O)CC1CC(=O)C(c2c(C)cc(C)cc2C)C1=O (stereo not shown) [Compound B37]	80%	100%	100%	90%	70%	70%	90%	90%
C#CCN(C)C(=O)CC1CC(=O)C(c2c(C)cc(C)cc2C)C1=O (stereo not shown) [Compound B38]	90%	100%	90%	60%	70%	70%	90%	100%
Cc1cc(C)c(C2C(=O)CC(CC(=O)NC(C)(C)CCl)C2=O)c(C)c1 (stereo not shown) [Compound B39]	60%	60%	70%	30%	80%	30%	50%	0%
Cc1cc(C)c(C2C(=O)CC(CC(=O)NCC3CC3(Cl)Cl)C2=O)c(C)c1 (stereo not shown) [Compound B40]	80%	90%	90%	70%	80%	90%	90%	90%
Cc1cc(C)c(C2C(=O)CC(CC(=O)NC3(C)CCCC3)C2=O)c(C)c1 (stereo not shown) [Compound B41]	60%	70%	70%	30%	80%	70%	60%	60%
Cc1cc(C)c(C2C(=O)CC(CC(=O)NC3=NOC(C)(C)C3)C2=O)c(C)c1 (stereo not shown) [Compound B42]	40%	0%	60%	0%	60%	0%	0%	0%
Cc1cc(C)c(C2C(=O)CC(CC(=O)NC(C)(C)C#N)C2=O)c(C)c1 (stereo not shown) [Compound B43]	80%	60%	80%	30%	80%	70%	60%	40%
C=C(C)CNC(=O)CC1CC(=O)C(c2c(C)cc(C)cc2C)C1=O (stereo not shown) [Compound B44]	90%	100%	90%	60%	90%	90%	90%	90%
C#CCN(CC#C)C(=O)CC1CC(=O)C(c2c(C)cc(C)cc2C)C1=O (stereo not shown) [Compound B45]	80%	80%	80%	10%	80%	70%	80%	60%

From US10206394B2, “Herbicidal compounds” (Syngenta Participations AG, priority 2014, dated 2019)
